Assays:
[1] = tested on: type 1 diabetes mellitus mice; experiment: Insulin concentration in peripheral blood measured by ultrasensitive insulin kit; type: in vivo, mouse; conditions: 200 mg/kg twice daily; fasted for 16 hours; compared with the normal saline group; FIG. 6
From the text: (§1) • 1. Blood glucose test strips and blood glucose meter, from Eli Lilly and Company, USA; • 2. C57 B6/J Female mice, from Nanjing Gem Pharmaceutical Co., Ltd.; • 3. Streptozotocin, from Sigma-Aldrich Company, USA; • 4. Ultrasensitive insulin kit, from ALPCO Company, USA; • 5. Insulin antibody, from DAKO Company, USA; • 6. Glucagon antibody, from ABCAM Company, USA; and • 7. Other reagents required for immunofluorescence assay were purchased from Shanghai Sangon Technology Co., Ltd.
(§2) An 8-week-old C57B6/J female mouse was administered intraperitoneally with 200 mg/kg of streptozotocin solution. After 5 days of injection, the random blood glucose level of the mice was measured, mice with blood glucose levels higher than 20 mmol/L were selected and randomly divided into two groups for subsequent experiments.
(§3) Type 1 diabetes mellitus mouse models were administered 200 mg/kg of 6-phosphogluconic acid methyl ester (compound 1-1) or physiological saline at 8 a.m. and 8 p.m. everyday. The random blood glucose level of each mouse was measured once a day. Before the end of the experiment, the mice were fasted for 16 hours, and a small amount of peripheral blood was taken from the tail vein.
The concentration of insulin in peripheral blood of mice was measured by an ultrasensitive insulin kit.

[2] = tested on: type 1 diabetes mellitus mice; experiment: Random blood glucose level in streptozotocin type 1 diabetes mellitus mouse model; type: in vivo; conditions: 200 mg/kg at 8 a.m. and 8 p.m. everyday; compared with the normal saline group; FIG. 4
From the text: as §1, §2, §3

islet β-cells = experiment: Immunofluorescence assay of regeneration of islet β-cells in type 1 diabetes mellitus mice; type: in vivo, mouse; conditions: 200 mg/kg twice daily, compared with the normal saline group, FIG. 5
From the text: as §1, §2, §3
Immunofluorescence assay was used to measure the regeneration of islet β-cells of type 1 diabetes mellitus mice.

COC(=O)[C@H](O)[C@@H](O)[C@H](O)[C@H](O)COP(=O)(O)O [Compound 1-1, 6-phosphogluconic acid methyl ester]
concentration of fasting insulin in peripheral blood [1]: significantly increased
random blood glucose level [2]: significantly reduced
number of islet β-cells (regeneration) (islet β-cells): significantly increased

Source: US20250235472A1, “USE OF 6-PHOSPHOGLUCONIC ACID AND DERIVATIVE THEREOF IN PREPARING MEDICAMENT FOR PREVENTING OR TREATING GLYCOMETABOLISM DISORDER DISEASES” (FUDAN UNIVERSITY, priority 2022, published 2025)
